# Reference: US4110465A, “7-Amino and 7-alkanoylamino 2-oxo-3-phenylindolines” (Eli Lilly and Company, priority 1977, dated 1978)
# Columns and labels:
# [1] = test system: erythema produced by an ultra-violet light source on guinea pig skin; assay: UV-light-induced erythema blocking on guinea pig skin (anti-inflammatory activity); type: in vivo, albino guinea pigs; settings: Cavia porcellus; oral, suspension in 1 percent aqueous sodium carboxymethylcellulose; groups of 4 guinea pigs; obtained directly or by extrapolation; read-out: ED50 for erythema blocking (dose producing 50 percent inhibition of the erythemic response)
# Description: The compounds of this invention are anti-inflammatory and anti-thrombotic agents. […] Int. Pharmacodyn, 116, 261 (1958). In this procedure, albino guinea pigs weighing 225-300 gms. are shaved on the back and chemically depilated 18 to 20 hours before initiation of the test procedures. Animals in groups of 4 are given predetermined dosages of the drug under test with one group being maintained as a control group. The drug is administered by the oral route as a suspension in 1 percent aqueous sodium carboxymethylcellulose. The control animals receive only the suspending medium. After having being given the drug or suspension medium only, each group of animals is exposed to a high-intensity ultra-violet light for a predetermined period of time, the ultra-violet light being placed in contact with the depilated skin area on the animals' back. A gummed paper reinforcement is affixed to the lamp lens to provide an unexposed area of contrast for grading the light-produced erythema.
# Beginning one hour after exposure and thereafter an half-hour intervals for another 1.5 hours, a trained observer grades erythema using an arbitrary scoring system based upon the degree of contrast and redness formed. […] The following scoring system is used:
# Total scores from each treatment group of four guinea pigs are compared to the control treatment, and the percent inhibition calculated as follows: [formula] […]
# [2] = test system: collagen-induced platelet aggregation; assay: collagen-induced platelet aggregation (P.A.) inhibition after oral dosing; type: in vivo, guinea pigs; settings: 2 doses at time zero and 2 hours later, blood removed 60 minutes after last dose, 0.05 ml. of 1:45 collagen dilution
# Description: Certain of the compounds of this invention are also platelet aggregation inhibitors and the results of testing for this activity are also included in Table I. The platelet aggregation test used involves the effect of a drug upon collagen-induced platelet aggregation using the method of Hermann et al., Proc. Soc. Exp. Biol. Med. 136, 548 (1972). According to this procedure, 300-400 g. guinea pigs are used and the compound is administered by the oral route in 2 doses, at time zero and again 2 hours later, at a series of graded dose levels to groups of 4 pigs each. One group is maintained as a control group. Blood is removed by heart puncture 60 minutes after the last dose, and a platelet-rich plasma prepared therefrom. A stock collagen solution is prepared by solubilizing bovine Achilles tendon with acetic acid. The stock solution contains 0.25 percent collagen, has a pH of 2.8 and is kept under refrigeration. […] (Activity was determined by computor printout with significance at the 95 percent confidence level being attained at about the 50 percent inhibition level). In Table 1, column 1 gives the name of the compound, column 2, the ED50 for erythema blocking calculated as set forth above and column 3, the lowest active dose in the platelet aggregation test.
structure (smiles),measurement,setting,value
Nc1cccc2c1NC(=O)C2c1ccccc1 (stereo not shown) [2-oxo-3-phenyl-7-aminoindoline],ED50,[1],10.2 mg/kg
same,"P.A., lowest active dose in the platelet aggregation test (active = about 50% inhibition of collagen-induced aggregation)",[2],100 mg/kg × 2
"CC(=O)Nc1cccc2c1NC(=O)C2c1ccccc1 (stereo not shown) [N-(2-oxo-3-phenyl-7-indolinyl)-acetamide, N-(2-oxo-3-phenyl-7-indolinyl)acetamide]",ED50,[1],20 mg/kg
same,"P.A., lowest active dose in the platelet aggregation test (active = about 50% inhibition of collagen-induced aggregation)",[2],3.12 mg/kg × 2
